Results reported in PMC12346769, “Activity Analysis and Inhibition Mechanism of Four Novel Angiotensin I-Converting Enzyme Inhibitory Peptides Prepared from Flammulina velutipes by Enzymatic Hydrolysis” (Foods, 2025).
Marks after values point to notes of the source that are not given here. Where a SMILES comes first, the peptide text is derived from it. Where no end group is shown, it is not given here.

Target: T1, ACE (Homo sapiens, UniProt P12821)
T1 construct: purchased Shanghai Yuanye Biotechnology Co., Ltd
Assay: ACE inhibition rate / IC50 determination with FAPGG substrate (absorbance 340 nm)
Format: biochemical
Settings: for Inhibitory effect as % of the positive control: ACE inhibition rate relative to captopril; for IC50 / Inhibition Rate of ACE: synthesized peptides, captopril as positive control; for Inhibition Rate of ACE: test concentration not given
Description: The ACE inhibition rate was determined according to the method developed by Wang. In brief, 1 mmol/L FAPGG solution, 0.1 U/mL ACE solution, and F. velutipes protein solution were mixed in 80 mmol/L HEPES buffer (pH 8.2), and the mixture was added to 96-well plates according to Table 1. The absorbance value at the wavelength of 340 nm at 37 °C and the absorbance value after 30 min of reaction were measured. The calculation formula is as follows: (2) Inhibition Rate of ACE%=(1−ΔA/ΔB)×100
In the formula, ΔA = A1 − A2; ΔB = B1 − B2. ΔA was the absorbance value of the sample pore solution; ΔB was the absorbance value of the control pore solution. A1 and B1 were the absorbance values measured at the wavelength of 340 nm. A2 and B2 were the absorbance values measured at the wavelength of 340 nm after reacting for 30 min at 37 °C.
Wuhan Dangang Biotechnology Co., Ltd. (Wuhan, China) was commissioned to synthesize the peptides. […] With captopril as the positive control, the ACE inhibition rate and IC50 of the above synthetic peptides were determined according to the method of Section 2.5.

T1 sequence (P12821 30-1306, species assumed): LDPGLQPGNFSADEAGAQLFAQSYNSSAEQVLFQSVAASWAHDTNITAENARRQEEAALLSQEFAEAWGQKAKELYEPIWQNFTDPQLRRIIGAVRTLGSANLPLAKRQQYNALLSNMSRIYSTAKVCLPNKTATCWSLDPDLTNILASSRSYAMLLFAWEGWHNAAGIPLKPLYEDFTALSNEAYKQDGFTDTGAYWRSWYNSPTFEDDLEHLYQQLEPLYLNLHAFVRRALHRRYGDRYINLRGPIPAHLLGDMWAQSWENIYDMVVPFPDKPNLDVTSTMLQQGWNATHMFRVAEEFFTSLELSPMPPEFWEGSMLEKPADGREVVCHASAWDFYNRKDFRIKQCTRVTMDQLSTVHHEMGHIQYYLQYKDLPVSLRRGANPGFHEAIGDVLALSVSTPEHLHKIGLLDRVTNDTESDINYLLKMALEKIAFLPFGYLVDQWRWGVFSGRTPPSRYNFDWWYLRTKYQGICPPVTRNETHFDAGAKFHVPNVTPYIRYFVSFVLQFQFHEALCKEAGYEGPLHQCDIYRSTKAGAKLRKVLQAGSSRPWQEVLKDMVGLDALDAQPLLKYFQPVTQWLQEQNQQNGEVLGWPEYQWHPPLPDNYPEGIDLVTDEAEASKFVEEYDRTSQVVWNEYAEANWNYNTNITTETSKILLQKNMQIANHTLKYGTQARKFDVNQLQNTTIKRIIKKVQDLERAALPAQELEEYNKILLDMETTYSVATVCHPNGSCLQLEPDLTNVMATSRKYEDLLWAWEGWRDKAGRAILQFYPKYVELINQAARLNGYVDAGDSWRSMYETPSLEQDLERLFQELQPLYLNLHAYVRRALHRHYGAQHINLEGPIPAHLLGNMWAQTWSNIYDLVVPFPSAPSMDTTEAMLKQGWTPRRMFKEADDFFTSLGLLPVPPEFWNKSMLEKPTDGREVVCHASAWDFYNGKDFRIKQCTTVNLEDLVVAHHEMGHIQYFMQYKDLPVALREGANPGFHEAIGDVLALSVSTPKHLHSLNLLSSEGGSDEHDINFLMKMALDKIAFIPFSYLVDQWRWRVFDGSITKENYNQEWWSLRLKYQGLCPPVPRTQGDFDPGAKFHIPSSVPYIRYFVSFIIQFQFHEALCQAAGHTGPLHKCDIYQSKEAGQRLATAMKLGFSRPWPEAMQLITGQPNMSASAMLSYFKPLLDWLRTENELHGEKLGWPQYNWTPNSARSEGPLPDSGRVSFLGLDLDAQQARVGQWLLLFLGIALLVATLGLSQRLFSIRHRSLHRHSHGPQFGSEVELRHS

Compound | Inhibitory effect as % of the positive control | IC50 | Inhibition Rate of ACE
FAGGP [FAGGP] | 87.04% | 29.2 ± 1.37 µM | 85.92 ± 1.81 ^c %
C[C@H](NC(=O)[C@@H](N)Cc1c[nH]c2ccccc12)C(=O)N[C@@H](CC(=O)O)C(=O)N1CCC[C@H]1C(=O)O [WADP] (H-WADP-OH; N-terminus and C-terminus assumed) | 84.13% | 41.3 ± 0.7 µM | 83.04 ± 0.68 ^d %
N[C@@H](Cc1ccccc1)C(=O)N[C@@H](CC(=O)O)C(=O)NCC(=O)N[C@@H](Cc1ccc(O)cc1)C(=O)O [FDGY] (H-FDGY-OH; N-terminus and C-terminus assumed) | 81.53% | 91.5 ± 1.09 µM | 80.48 ± 0.84 ^e %
FHPGY [FHPGY] | 92.60% | 14.8 ± 0.34 µM | 91.41 ± 1.01 ^b %
